# Test results as given in patent EP0414533A1, “Use of iodopropargyl esters of alpha-amino acid derivatives as antimicrobial agents” (ROHM AND HAAS COMPANY, priority 1989, dated 1991).
# Structures can show the parent of a compound that is named as a salt. Where two headings read alike, the source gives them in different places.
# Assays:
# [1] = test system: Pseudomonas fluorescens (PSFL); assay: Minimum inhibitory concentration (MIC), broth two-fold serial dilution test; details: Pseudomonas fluorescens
# Description: (§1) When the test is ready to be done, each vessel in the dilution series, except the first vessel, contains an equal volume of compound free broth. The first vessel contains twice the volume of broth with the starting concentration of test compound. One half of the broth from the first vessel is transferred to the second vessel. After being mixed, one half the resulting volume is removed from the second vessel and transferred to the third vessel. The entire cycle is repeated sufficiently to give a series of concentrations amounting to 500, 250, 125, 63, 31, 16, 8, and 4 ppm (or 100, 50, 25, 12.5, 6.2, 3.1, 1.6, and 0.8), respectively.
# (§2) Each vessel is then inoculated with a cell suspension of the appropriate test organism. Bacteria are grown in broth, fungi on agar slants for a time and at a temperature appropriate to the species being tested, and algae are a mixture of green algae and blue-green bacteria grown in a nutrient media. At the end of the growth period, in the case of bacteria, the broth is vortexed to disperse the cells.
# (§3) The vessels are then incubated at the appropriate temperature. After the incubation, the vessels are examined for growth/no growth.
# [2] = test system: Cochliobolus sativus (HEL); assay: In-vitro plant fungicide test; format: cell-based; details: Bipolaris sorokiniana, 25 ppm; Table IVa; *=Phytotoxic; read-out: % Control at 25 ppm HEL
# Rhizoctonia solani (RHI) = assay: In-vitro plant fungicide test; format: cell-based; details: Rhizoctonia solani; 25 ppm; Table IVa; read-out: % Control at 25 ppm RHI
# Fusarium roseum (FUS) = assay: In-vitro plant fungicide test; format: cell-based; details: Fusarium sambucinum, read-out: % Control at 25 ppm FUS, 25 ppm; Table IVa; *=Phytotoxic
# Piricularia oryzae (PIR) = assay: microbe, parasite or virus in culture; format: cell-based; details: read-out: % Control at 25 ppm PIR
# Botrytis cinerea (BOC) = assay: In-vitro plant fungicide test; format: cell-based; details: Botrytis cinerea, 25 ppm; Table IVa; *=Phytotoxic; read-out: % Control at 25 ppm BOC
# THREE FUNGI = assay: MIC test against three fungi in Mycophile Broth, pH 5.0, read after 8 days (Table VII); format: cell-based; details: 192 h
# [3] = test system: Xanthomonas campestris (XAN); assay: In-vitro plant fungicide test; format: cell-based; details: Xanthomonas campestris; 25 ppm; Table IVa; read-out: % Control at 25 ppm XAN
# Escherichia coli (ECOL) = assay: Minimum inhibitory concentration (MIC), broth two-fold serial dilution test; details: Escherichia coli
# Description: as §1, §2, §3
# [4] = test system: Staphylococcus aureus (SAUR); assay: as above; details: Staphylococcus aureus
# Description: as §1, §2, §3
# [5] = test system: Pseudomonas aerugenosa (PSAE); assay: as above; details: Pseudomonas
# [6] = test system: Phytophthora capsici (PHY); assay: In-vitro plant fungicide test; format: cell-based; details: Phytophthora capsici; 25 ppm; Table IVa; read-out: % Control at 25 ppm PHY
# [7] = test system: Aureobasidium pullulans (APUL); assay: Minimum inhibitory concentration (MIC), broth two-fold serial dilution test; format: cell-based; details: Aureobasidium pullulans
# Pythium ultimum (PYU) = assay: In-vitro plant fungicide test; format: cell-based; details: Globisporangium ultimum; 25 ppm; Table IVa; read-out: % Control at 25 ppm PYU
# Septoria nodorum (SEP) = assay: In-vitro plant fungicide test; format: cell-based; details: Parastagonospora nodorum, 25 ppm; Table IVa; read-out: % Control at 25 ppm SEP
# Aspergillus niger (ANIG) = assay: Minimum inhibitory concentration (MIC), broth two-fold serial dilution test; format: cell-based; details: Aspergillus niger
# [8] = test system: MIXED COOLING TOWER ALGAE; assay: MIC test against mixed cooling tower algae; format: cell-based, green algae and blue-green bacteria; details: Table VIII
# Experimental: The algae culture contains green algae and blue-green bacteria, and is obtained from a cooling tower in Spring House, Pennsylvania. The algae culture is grown in Allen's medium on a rotary shaker under flourescent room lighting. This culture is further diluted with Allen's medium and then added to the test vessel.
# 8 FUNGI = assay: Microbicides secondary test against 8 fungi on Mycophile Agar at pH 5.0 (Table VI); format: cell-based; design: key: 1= no growth; 0= growth of the indicated fungi at dose indicated in ppm; details: for ANIG growth: Aspergillus niger; for APUL growth: Aureobasidium pullulans; for CGLO growth: Chaetomium globosum; for CRES growth: Cladosporium resinae; for GTRA growth: Gloeophyllum trabeum; for PFUN growth: Penicillium funiculosum; for RRUB growth: Rhodotorula rubra; for SSER growth: Sacharomyces cerevisiae
# Description: The results of the minimum inhibitory concentration (MIC) tests of compounds of this invention are shown in Tables IIIa IIIb, IIIc, V, VI, VII, and VIII against the microorganisms shown in Table IX.
# [9] = read-out: MIC (G-) PSFL, M9G (minimal salts media with glucose), Table IIIc, iodopropargyl esters of peptides
# [10] = Aspergillus niger, serial dilutions from 50 ppm, read after 8 days of incubation, read-out: MIC ANIG
# [11] = Aureobasidium pullulans, serial dilutions from 50 ppm, read after 8 days of incubation, read-out: MIC APUL
# [12] = Gloeophyllum trabeum, serial dilutions from 50 ppm, read after 8 days of incubation, read-out: MIC GTRA
# [13] = read-out: MIC (G-) ECOL, M9G (minimal salts media with glucose), Table IIIc, iodopropargyl esters of peptides
# [14] = read-out: MIC (G+) SAUR, M9G (minimal salts media with glucose), Table IIIc, iodopropargyl esters of peptides
# [15] = read-out: MIC (G-) PSAE, M9G (minimal salts media with glucose), Table IIIc, iodopropargyl esters of peptides
# [16] = Aspergillus niger, pH 5, read-out: MIC ANIG, Aspergillus niger, serial dilutions from 50 ppm, read after 8 days of incubation
# [17] = Aureobasidium pullulans, pH 5, read-out: MIC APUL, Aureobasidium pullulans, serial dilutions from 50 ppm, read after 8 days of incubation
# [18] = Gloeophyllum trabeum, pH 5, read-out: MIC GTRA, Gloeophyllum trabeum, serial dilutions from 50 ppm, read after 8 days of incubation
# [19] = read-out: MIC (F) APUL, M9G (minimal salts media with glucose), Table IIIc, iodopropargyl esters of peptides
# [20] = read-out: MIC (F) ANIG, M9G (minimal salts media with glucose), Table IIIc, iodopropargyl esters of peptides
structure (smiles),measurement,setting,value
"C[C@H](NC(=O)OC(C)(C)C)C(=O)N[C@H](C(=O)OCC#CI)[C@@H](C)OCc1ccccc1 [Compound 16, N-t-butoxycarbonyl-L-alanyl-O-benzyl-L-threonine iodopropargyl ester]",MIC,[1]; [9],> 100 µg/mL
same,inhibition of growth at 25 ppm,[2],0%
same,inhibition of growth at 25 ppm,Rhizoctonia solani (RHI),100%
same,inhibition of growth at 25 ppm,Fusarium roseum (FUS),0%
same,inhibition of growth at 25 ppm,Piricularia oryzae (PIR),100%
same,inhibition of growth at 25 ppm,Botrytis cinerea (BOC),0%
same,MIC,THREE FUNGI; [10],> 50 µg/mL
same,MIC,THREE FUNGI; [11],> 50 µg/mL
same,MIC,THREE FUNGI; [12],25 µg/mL
same,inhibition of growth at 25 ppm,[3],0%
same,MIC,Escherichia coli (ECOL); [13],> 100 µg/mL
same,MIC,[4]; [14],6 µg/mL
same,MIC,[5]; [15],> 100 µg/mL
same,inhibition of growth at 25 ppm,[6],0%
same,MIC,"[7]; M9G (minimal salts media with glucose), Table IIIc, iodopropargyl esters of peptides, read-out: MIC (F) APUL",< 0.8 µg/mL
same,inhibition of growth at 25 ppm,Pythium ultimum (PYU),100%
same,inhibition of growth at 25 ppm,Septoria nodorum (SEP),100%
same,MIC,"Aspergillus niger (ANIG); M9G (minimal salts media with glucose), Table IIIc, iodopropargyl esters of peptides, read-out: MIC (F) ANIG",13 µg/mL
"C[C@H](N)C(=O)NCC(=O)OCC#CI [Compound 17, L-alanylglycine iodopropargyl ester trifluoroacetate]",MIC,[1]; [9],100 µg/mL
same,inhibition of growth at 25 ppm,[2],50%
same,inhibition of growth at 25 ppm,Rhizoctonia solani (RHI),100%
same,inhibition of growth at 25 ppm,Fusarium roseum (FUS),100%
same,inhibition of growth at 25 ppm,Piricularia oryzae (PIR),100%
same,inhibition of growth at 25 ppm,Botrytis cinerea (BOC),75%
same,MIC,THREE FUNGI; [16],12.5 µg/mL
same,MIC,THREE FUNGI; [17],50 µg/mL
same,MIC,THREE FUNGI; [18],25 µg/mL
same,inhibition of growth at 25 ppm,[3],0%
same,MIC,Escherichia coli (ECOL); [13],100 µg/mL
same,MIC,[4]; [14],100 µg/mL
same,MIC,[5]; [15],100 µg/mL
same,inhibition of growth at 25 ppm,[6],100%
same,MIC,[7]; [19],< 0.8 µg/mL
same,inhibition of growth at 25 ppm,Pythium ultimum (PYU),100%
same,inhibition of growth at 25 ppm,Septoria nodorum (SEP),75%
same,MIC,Aspergillus niger (ANIG); [20],< 0.8 µg/mL
"C[C@H](N)C(=O)N[C@@H](C)C(=O)OCC#CI [Compound 18, L-alanyl-L-alanine iodopropargyl ester trifluoroacetate]",MIC,[1]; [9],100 µg/mL
same,inhibition of growth at 25 ppm,[2],100%
same,inhibition of growth at 25 ppm,Rhizoctonia solani (RHI),100%
same,inhibition of growth at 25 ppm,Fusarium roseum (FUS),100%
same,inhibition of growth at 25 ppm,Piricularia oryzae (PIR),100%
same,inhibition of growth at 25 ppm,Botrytis cinerea (BOC),50%
same,MIC,THREE FUNGI; [16],12.5 µg/mL
same,MIC,THREE FUNGI; [17],50 µg/mL
same,MIC,THREE FUNGI; [18],12.5 µg/mL
same,inhibition of growth at 25 ppm,[3],0%
same,MIC,Escherichia coli (ECOL); [13],100 µg/mL
same,MIC,[4]; [14],> 100 µg/mL
same,MIC,[5]; [15],100 µg/mL
same,inhibition of growth at 25 ppm,[6],100%
same,MIC,[7]; [19],< 0.8 µg/mL
same,inhibition of growth at 25 ppm,Pythium ultimum (PYU),100%
same,inhibition of growth at 25 ppm,Septoria nodorum (SEP),100%
same,MIC,Aspergillus niger (ANIG); [20],< 0.8 µg/mL
"C[C@H](N)C(=O)N[C@@H](CSCc1ccccc1)C(=O)OCC#CI [Compound 20, L-alanyl-S-benzyl-L-cysteine iodopropargyl ester trifluoroacetate]",MIC,[1]; [9],100 µg/mL
same,inhibition of growth at 25 ppm,[2],100%
same,inhibition of growth at 25 ppm,Rhizoctonia solani (RHI),100%
same,inhibition of growth at 25 ppm,Fusarium roseum (FUS),100%
same,inhibition of growth at 25 ppm,Piricularia oryzae (PIR),100%
same,inhibition of growth at 25 ppm,Botrytis cinerea (BOC),0%
same,MIC,THREE FUNGI; [16],50 µg/mL
same,MIC,THREE FUNGI; [17],50 µg/mL
same,MIC,THREE FUNGI; [18],12.5 µg/mL
same,inhibition of growth at 25 ppm,[3],0%
same,MIC,Escherichia coli (ECOL); [13],100 µg/mL
same,MIC,[4]; [14],100 µg/mL
same,MIC,[5]; [15],100 µg/mL
same,inhibition of growth at 25 ppm,[6],100%
same,MIC,[7]; [19],< 0.8 µg/mL
same,inhibition of growth at 25 ppm,Pythium ultimum (PYU),100%
same,inhibition of growth at 25 ppm,Septoria nodorum (SEP),100%
same,MIC,Aspergillus niger (ANIG); [20],< 0.8 µg/mL
"C[C@H](N)C(=O)N[C@H](C(=O)OCC#CI)[C@@H](C)OCc1ccccc1 [Compound 21, L-alanyl-O-benzyl-L-threonine iodopropargyl ester trifluoroacetate]",MIC,[1]; [9],100 µg/mL
same,inhibition of growth at 25 ppm,[2],0%
same,inhibition of growth at 25 ppm,Rhizoctonia solani (RHI),100%
same,inhibition of growth at 25 ppm,Fusarium roseum (FUS),0%
same,inhibition of growth at 25 ppm,Piricularia oryzae (PIR),100%
same,inhibition of growth at 25 ppm,Botrytis cinerea (BOC),0%
same,MIC,THREE FUNGI; [16],50 µg/mL
same,MIC,THREE FUNGI; [17],> 50 µg/mL
same,MIC,THREE FUNGI; [18],50 µg/mL
same,inhibition of growth at 25 ppm,[3],0%
same,MIC,Escherichia coli (ECOL); [13],100 µg/mL
same,MIC,[4]; [14],> 100 µg/mL
same,MIC,[5]; [15],100 µg/mL
same,inhibition of growth at 25 ppm,[6],100%
same,MIC,[7]; [19],1.6 µg/mL
same,inhibition of growth at 25 ppm,Pythium ultimum (PYU),100%
same,inhibition of growth at 25 ppm,Septoria nodorum (SEP),100%
same,MIC,Aspergillus niger (ANIG); [20],< 0.8 µg/mL
"O=C(CNC(=O)OCc1ccccc1)OCC#CI [Compound 31, N-benzyloxycarbonylglycine iodopropargyl ester]",MIC,"[1]; IIIB, read-out: MIC (G-) PSFL, trypticase soy broth (complex media), Table IIIb",32 µg/mL
same,MIC,[8],6.2 µg/mL
same,MIC,THREE FUNGI; [10],1.6 µg/mL
same,MIC,THREE FUNGI; [11],6.2 µg/mL
same,MIC,THREE FUNGI; [12],0.8 µg/mL
same,MIC,"Escherichia coli (ECOL); IIIB, read-out: MIC (G-) ECOL, trypticase soy broth (complex media), Table IIIb",250 µg/mL
same,MIC,"[4]; IIIB, read-out: MIC (G+) SAUR, trypticase soy broth (complex media), Table IIIb",32 µg/mL
same,MIC,"[5]; IIIB, read-out: MIC (G-) PSAE, trypticase soy broth (complex media), Table IIIb",63 µg/mL
same,MIC,"[7]; IIIB, trypticase soy broth (complex media), Table IIIb, read-out: MIC (F) APUL",4 µg/mL
same,ANIG growth,8 FUNGI; 0.2 PPM,0
same,ANIG growth,8 FUNGI; 1.0 PPM,0
same,ANIG growth,8 FUNGI; 2.5 PPM,1
same,ANIG growth,8 FUNGI; 25 PPM,1
same,APUL growth,8 FUNGI; 0.2 PPM,0
same,APUL growth,8 FUNGI; 1.0 PPM,0
same,APUL growth,8 FUNGI; 2.5 PPM,0
same,APUL growth,8 FUNGI; 25 PPM,1
same,CGLO growth,8 FUNGI; 0.2 PPM,0
same,CGLO growth,8 FUNGI; 1.0 PPM,0
same,CGLO growth,8 FUNGI; 2.5 PPM,1
same,CGLO growth,8 FUNGI; 25 PPM,1
same,CRES growth,8 FUNGI; 0.2 PPM,0
same,CRES growth,8 FUNGI; 1.0 PPM,0
same,CRES growth,8 FUNGI; 2.5 PPM,0
same,CRES growth,8 FUNGI; 25 PPM,1
same,GTRA growth,8 FUNGI; 0.2 PPM,0
same,GTRA growth,8 FUNGI; 1.0 PPM,0
same,GTRA growth,8 FUNGI; 2.5 PPM,1
same,GTRA growth,8 FUNGI; 25 PPM,1
same,PFUN growth,8 FUNGI; 0.2 PPM,0
same,PFUN growth,8 FUNGI; 1.0 PPM,0
same,PFUN growth,8 FUNGI; 2.5 PPM,1
same,PFUN growth,8 FUNGI; 25 PPM,1
same,RRUB growth,8 FUNGI; 0.2 PPM,0
same,RRUB growth,8 FUNGI; 1.0 PPM,0
same,RRUB growth,8 FUNGI; 2.5 PPM,0
same,RRUB growth,8 FUNGI; 25 PPM,1
same,SSER growth,8 FUNGI; 0.2 PPM,0
same,SSER growth,8 FUNGI; 1.0 PPM,0
same,SSER growth,8 FUNGI; 2.5 PPM,0
same,SSER growth,8 FUNGI; 25 PPM,1
same,MIC,"Aspergillus niger (ANIG); IIIB, trypticase soy broth (complex media), Table IIIb, read-out: MIC (F) ANIG",2 µg/mL
